Results from ChEMBL document CHEMBL1148776, “Structure-based optimization of protein tyrosine phosphatase 1B inhibitors: from the active site to the second phosphotyrosine binding site” (J Med Chem, 2007).

What was measured:
[1] = Drug level in C57/B6 mouse liver at 10 mg/kg, ip after 7 hrs; type: ADME, organism-based; design: dose 10 mg/kg, route intraperitoneal; conditions: read-out: Drug uptake
[2] = Stability in mouse liver microsomes; type: ADME, Microsome
[3] = biological target: Cytochrome P450 2C9 (Homo sapiens, UniProt P11712); experiment: Inhibition of CYP2C9; type: ADME
Sequence of Cytochrome P450 2C9 (P11712 whole entry): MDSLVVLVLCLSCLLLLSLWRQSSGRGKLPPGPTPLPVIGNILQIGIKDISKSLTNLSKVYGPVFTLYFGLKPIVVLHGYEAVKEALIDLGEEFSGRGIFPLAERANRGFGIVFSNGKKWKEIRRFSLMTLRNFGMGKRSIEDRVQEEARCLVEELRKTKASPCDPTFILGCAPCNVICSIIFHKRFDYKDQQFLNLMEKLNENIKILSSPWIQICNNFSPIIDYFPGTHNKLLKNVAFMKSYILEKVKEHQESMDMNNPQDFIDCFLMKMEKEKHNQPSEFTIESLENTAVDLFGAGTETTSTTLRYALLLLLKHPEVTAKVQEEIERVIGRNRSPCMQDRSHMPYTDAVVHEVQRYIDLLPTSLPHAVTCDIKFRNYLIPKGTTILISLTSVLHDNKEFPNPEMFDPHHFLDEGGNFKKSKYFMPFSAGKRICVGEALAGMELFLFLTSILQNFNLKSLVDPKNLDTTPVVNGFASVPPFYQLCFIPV

[4] = Cmax in C57/B6 mouse plasma at 10 mg/kg, ip after 1 hr; type: ADME, organism-based; design: dose 10 mg/kg, route intraperitoneal
[5] = biological target: T1, Cytochrome P450 1A2 (Homo sapiens, UniProt P05177); experiment: Inhibition of CYP1A2; type: ADME
T1 sequence (P05177 whole entry): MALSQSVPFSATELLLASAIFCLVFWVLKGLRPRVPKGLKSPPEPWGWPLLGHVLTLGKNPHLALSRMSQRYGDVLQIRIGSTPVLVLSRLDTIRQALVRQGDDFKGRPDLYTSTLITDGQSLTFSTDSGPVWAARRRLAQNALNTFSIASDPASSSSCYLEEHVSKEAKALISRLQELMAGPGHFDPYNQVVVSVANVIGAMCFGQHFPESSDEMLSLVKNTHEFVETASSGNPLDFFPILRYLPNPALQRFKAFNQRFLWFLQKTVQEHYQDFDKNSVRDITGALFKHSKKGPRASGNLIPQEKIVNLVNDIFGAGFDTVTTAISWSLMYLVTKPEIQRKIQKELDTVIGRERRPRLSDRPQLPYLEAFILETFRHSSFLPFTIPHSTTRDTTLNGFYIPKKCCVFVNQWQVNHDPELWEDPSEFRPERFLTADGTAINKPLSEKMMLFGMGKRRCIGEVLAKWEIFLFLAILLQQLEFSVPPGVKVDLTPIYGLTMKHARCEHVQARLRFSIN

[6] = biological target: T2, Cytochrome P450 2C8 (Homo sapiens, UniProt P10632); experiment: Inhibition of CYP2C8; type: ADME
T2 sequence (P10632 whole entry): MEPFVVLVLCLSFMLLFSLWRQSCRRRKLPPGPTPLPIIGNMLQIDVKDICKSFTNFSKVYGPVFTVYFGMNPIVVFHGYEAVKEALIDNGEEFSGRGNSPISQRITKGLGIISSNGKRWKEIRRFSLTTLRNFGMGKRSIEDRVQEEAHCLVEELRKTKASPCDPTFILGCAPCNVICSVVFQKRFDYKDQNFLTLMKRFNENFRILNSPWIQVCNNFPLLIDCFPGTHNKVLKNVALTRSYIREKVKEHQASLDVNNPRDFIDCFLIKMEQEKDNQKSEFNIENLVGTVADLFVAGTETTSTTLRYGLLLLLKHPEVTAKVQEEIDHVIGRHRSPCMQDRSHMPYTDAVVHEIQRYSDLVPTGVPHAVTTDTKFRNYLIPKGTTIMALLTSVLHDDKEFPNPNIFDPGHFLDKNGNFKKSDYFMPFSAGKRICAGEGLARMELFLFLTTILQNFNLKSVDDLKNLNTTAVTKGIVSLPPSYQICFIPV

[7] = biological target: Cytochrome P450 2D6 (Homo sapiens, UniProt P10635); experiment: Inhibition of CYP2D6; type: ADME
Sequence of Cytochrome P450 2D6 (P10635 whole entry): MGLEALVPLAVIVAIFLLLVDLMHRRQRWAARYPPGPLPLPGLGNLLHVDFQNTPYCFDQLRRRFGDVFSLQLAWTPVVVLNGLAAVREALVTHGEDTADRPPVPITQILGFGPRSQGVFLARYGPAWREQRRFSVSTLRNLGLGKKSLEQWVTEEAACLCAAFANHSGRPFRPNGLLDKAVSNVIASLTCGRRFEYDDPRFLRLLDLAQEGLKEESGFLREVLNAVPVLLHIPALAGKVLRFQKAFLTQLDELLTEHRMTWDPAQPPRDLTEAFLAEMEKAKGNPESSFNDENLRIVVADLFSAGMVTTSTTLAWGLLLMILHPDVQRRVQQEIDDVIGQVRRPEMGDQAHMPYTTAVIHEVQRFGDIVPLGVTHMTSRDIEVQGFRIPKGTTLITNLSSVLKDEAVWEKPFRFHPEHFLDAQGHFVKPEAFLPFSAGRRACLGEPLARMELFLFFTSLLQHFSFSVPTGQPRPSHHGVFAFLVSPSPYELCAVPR

[8] = biological target: Receptor-type tyrosine-protein phosphatase F (Homo sapiens, UniProt P10586); experiment: Inhibition of human recombinant LAR
Sequence of Receptor-type tyrosine-protein phosphatase F (P10586 whole entry): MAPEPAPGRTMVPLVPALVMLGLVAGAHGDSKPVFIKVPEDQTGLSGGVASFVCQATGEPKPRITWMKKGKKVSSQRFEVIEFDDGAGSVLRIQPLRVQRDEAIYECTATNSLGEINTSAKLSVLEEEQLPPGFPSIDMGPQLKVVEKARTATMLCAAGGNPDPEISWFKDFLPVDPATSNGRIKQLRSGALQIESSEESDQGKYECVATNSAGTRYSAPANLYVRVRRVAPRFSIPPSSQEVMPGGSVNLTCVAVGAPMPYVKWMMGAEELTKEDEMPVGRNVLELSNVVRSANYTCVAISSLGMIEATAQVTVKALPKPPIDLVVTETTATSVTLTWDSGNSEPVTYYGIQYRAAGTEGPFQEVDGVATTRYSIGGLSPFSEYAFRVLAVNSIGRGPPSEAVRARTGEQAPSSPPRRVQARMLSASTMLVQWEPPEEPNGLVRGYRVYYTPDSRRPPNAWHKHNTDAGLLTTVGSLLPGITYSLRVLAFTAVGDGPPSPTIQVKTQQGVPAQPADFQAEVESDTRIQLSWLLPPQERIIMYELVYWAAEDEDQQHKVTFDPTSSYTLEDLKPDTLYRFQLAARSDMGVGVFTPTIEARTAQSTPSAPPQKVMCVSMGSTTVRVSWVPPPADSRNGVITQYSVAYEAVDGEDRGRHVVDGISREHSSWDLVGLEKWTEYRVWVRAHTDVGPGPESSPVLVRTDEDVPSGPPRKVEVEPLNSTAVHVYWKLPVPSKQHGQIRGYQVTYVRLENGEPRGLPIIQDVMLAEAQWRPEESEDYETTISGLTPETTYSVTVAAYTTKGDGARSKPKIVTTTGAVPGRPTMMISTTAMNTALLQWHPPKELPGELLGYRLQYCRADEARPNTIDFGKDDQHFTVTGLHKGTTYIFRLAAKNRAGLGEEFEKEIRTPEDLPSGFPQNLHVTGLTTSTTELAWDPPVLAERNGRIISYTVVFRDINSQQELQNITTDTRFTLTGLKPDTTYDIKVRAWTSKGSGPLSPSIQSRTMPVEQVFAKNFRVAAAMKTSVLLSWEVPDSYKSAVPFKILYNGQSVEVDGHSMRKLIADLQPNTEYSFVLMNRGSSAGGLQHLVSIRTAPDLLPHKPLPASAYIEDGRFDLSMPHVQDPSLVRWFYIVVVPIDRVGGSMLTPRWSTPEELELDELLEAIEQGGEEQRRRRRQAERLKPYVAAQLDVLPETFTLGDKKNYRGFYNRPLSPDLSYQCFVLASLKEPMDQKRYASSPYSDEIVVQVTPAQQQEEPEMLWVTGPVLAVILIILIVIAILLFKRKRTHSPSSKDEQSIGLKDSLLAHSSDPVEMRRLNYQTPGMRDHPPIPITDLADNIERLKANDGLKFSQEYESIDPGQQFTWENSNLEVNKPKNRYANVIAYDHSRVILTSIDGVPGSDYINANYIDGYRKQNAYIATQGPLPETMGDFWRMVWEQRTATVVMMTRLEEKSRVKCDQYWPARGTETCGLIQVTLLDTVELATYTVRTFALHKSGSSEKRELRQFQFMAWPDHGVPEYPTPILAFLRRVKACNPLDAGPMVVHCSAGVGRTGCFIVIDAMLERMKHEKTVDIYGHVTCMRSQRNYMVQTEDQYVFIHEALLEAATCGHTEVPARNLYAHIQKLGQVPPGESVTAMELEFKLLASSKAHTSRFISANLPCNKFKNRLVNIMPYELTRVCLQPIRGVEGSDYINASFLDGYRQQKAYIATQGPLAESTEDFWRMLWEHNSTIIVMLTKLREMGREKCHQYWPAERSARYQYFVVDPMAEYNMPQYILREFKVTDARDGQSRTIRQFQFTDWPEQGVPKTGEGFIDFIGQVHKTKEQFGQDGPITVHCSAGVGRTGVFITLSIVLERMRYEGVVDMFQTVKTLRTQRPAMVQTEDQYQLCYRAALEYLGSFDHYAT

[9] = tested on: Hepatocyte; experiment: Decrease in drug uptake in rat hepatocytes in presence of verapamil; type: ADME, cell-based; design: scale not given: the % may be the effect or the level left
[10] = Half life in Sprague-Dawley rat at 2 mg/kg, iv; type: ADME, organism-based; design: dose 2 mg/kg, route intravenous; conditions: in vivo
[11] = biological target: T3, Cytochrome P450 2A6 (Homo sapiens, UniProt P11509); experiment: Inhibition of CYP2A6; type: ADME
T3 sequence (P11509 whole entry): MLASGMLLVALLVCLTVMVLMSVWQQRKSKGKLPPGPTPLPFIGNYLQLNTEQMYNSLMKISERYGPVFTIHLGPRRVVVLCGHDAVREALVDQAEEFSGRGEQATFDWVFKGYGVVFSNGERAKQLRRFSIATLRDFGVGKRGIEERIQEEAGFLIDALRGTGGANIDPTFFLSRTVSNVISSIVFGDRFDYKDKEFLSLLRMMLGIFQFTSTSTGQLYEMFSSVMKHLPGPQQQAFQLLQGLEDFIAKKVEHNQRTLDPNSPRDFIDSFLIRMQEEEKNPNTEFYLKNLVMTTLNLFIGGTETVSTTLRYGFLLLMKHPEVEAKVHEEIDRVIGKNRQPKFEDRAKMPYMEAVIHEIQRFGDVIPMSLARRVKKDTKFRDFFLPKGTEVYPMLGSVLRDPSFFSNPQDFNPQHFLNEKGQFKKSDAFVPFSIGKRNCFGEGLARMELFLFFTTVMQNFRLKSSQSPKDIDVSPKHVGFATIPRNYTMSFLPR

[12] = Stability in human liver microsomes; type: ADME, Microsome
[13] = Drug level in C57/B6 mouse muscle at 10 mg/kg, ip after 7 hrs; type: ADME, organism-based, Muscle tissue; design: dose 10 mg/kg, route intraperitoneal; conditions: read-out: Drug uptake
[14] = Stability in rat liver microsomes; type: ADME, Microsome
[15] = Drug level in C57/B6 mouse plasma at 10 mg/kg, ip after 7 hrs; type: ADME, organism-based; design: dose 10 mg/kg, route intraperitoneal; conditions: read-out: Drug uptake
[16] = Aqueous solubility at pH 7.4; type: physicochemical
[17] = biological target: Cytochrome P450 3A4 (Homo sapiens, UniProt P08684); experiment: Inhibition of CYP3A4; type: ADME
Sequence of Cytochrome P450 3A4 (P08684 whole entry): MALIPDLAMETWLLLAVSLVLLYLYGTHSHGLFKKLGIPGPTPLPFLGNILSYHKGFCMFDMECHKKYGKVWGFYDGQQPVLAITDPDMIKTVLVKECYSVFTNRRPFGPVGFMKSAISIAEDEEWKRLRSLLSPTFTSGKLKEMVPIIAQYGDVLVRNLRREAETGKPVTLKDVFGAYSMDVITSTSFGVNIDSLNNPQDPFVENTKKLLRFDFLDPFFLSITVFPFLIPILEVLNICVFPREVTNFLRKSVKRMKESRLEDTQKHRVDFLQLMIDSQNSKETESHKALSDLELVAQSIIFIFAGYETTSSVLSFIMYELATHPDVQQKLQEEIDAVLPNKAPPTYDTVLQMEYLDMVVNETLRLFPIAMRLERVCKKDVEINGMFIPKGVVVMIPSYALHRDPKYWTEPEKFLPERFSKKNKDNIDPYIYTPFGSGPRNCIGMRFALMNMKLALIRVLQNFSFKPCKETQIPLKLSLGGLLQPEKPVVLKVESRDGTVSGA

[18] = Plasma clearance in Sprague-Dawley rat at 2 mg/kg, iv; type: ADME, organism-based; design: dose 2 mg/kg, route intravenous
[19] = biological target: Cytochrome P450 2C19 (Homo sapiens, UniProt P33261); experiment: Inhibition of CYP2C19; type: ADME
Sequence of Cytochrome P450 2C19 (P33261 whole entry): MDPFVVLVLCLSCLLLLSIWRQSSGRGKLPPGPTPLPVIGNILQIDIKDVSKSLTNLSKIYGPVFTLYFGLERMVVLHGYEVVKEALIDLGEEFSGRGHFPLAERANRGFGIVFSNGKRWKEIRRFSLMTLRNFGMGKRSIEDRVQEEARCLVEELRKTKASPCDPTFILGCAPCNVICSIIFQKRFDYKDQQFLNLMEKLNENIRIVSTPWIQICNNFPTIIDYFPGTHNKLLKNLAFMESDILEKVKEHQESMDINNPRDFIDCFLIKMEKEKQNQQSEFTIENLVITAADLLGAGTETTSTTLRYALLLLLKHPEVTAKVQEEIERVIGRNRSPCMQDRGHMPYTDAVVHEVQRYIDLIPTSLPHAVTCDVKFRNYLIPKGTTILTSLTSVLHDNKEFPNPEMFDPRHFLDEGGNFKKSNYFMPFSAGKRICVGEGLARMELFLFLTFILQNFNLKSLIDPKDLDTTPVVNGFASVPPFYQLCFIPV

[20] = Permeability coefficient across human Caco-2 cells; type: ADME, cell-based; conditions: read-out: permeability
[21] = biological target: T4, Receptor-type tyrosine-protein phosphatase C (Homo sapiens, UniProt P08575); experiment: Inhibition of human recombinant CD45
T4 sequence (P08575 whole entry): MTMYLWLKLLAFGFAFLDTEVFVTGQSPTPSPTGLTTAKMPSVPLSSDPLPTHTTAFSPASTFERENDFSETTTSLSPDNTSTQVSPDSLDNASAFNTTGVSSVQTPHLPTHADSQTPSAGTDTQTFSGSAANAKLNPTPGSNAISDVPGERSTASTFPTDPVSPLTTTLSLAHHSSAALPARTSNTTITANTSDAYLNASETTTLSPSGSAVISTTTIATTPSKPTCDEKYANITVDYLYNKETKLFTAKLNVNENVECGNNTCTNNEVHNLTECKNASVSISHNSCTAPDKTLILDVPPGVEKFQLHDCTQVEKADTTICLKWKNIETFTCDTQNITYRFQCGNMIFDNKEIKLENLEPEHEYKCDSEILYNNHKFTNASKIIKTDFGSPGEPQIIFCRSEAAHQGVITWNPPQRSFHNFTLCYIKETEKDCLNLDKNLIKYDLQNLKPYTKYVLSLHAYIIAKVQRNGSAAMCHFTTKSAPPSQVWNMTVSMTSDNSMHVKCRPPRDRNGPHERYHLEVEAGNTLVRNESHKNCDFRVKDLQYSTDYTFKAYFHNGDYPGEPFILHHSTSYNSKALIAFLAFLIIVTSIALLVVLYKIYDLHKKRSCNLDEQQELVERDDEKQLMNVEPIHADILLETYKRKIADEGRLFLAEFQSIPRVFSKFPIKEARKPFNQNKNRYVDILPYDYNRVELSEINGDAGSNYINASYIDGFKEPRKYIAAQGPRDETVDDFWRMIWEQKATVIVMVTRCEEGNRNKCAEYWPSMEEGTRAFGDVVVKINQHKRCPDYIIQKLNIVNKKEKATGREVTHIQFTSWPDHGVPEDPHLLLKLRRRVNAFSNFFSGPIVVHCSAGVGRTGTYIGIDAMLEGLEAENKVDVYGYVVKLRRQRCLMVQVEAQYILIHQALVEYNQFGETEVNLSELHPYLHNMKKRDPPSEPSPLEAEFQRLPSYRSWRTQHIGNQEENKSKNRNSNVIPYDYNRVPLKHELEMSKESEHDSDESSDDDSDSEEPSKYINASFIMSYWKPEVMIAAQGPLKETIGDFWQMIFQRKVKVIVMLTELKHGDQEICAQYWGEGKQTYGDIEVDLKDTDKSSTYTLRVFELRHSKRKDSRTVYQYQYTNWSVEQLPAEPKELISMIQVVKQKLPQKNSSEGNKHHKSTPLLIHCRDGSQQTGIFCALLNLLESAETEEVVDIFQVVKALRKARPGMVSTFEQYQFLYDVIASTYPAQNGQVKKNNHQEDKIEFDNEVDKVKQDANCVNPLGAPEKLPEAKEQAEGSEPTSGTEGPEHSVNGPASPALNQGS

[22] = Drug level in C57/B6 mouse muscle at 10 mg/kg, ip after 1 hr; type: ADME, organism-based, Muscle tissue; design: dose 10 mg/kg, route intraperitoneal; conditions: read-out: Drug uptake
[23] = Drug level in C57/B6 mouse liver at 10 mg/kg, ip after 1 hr; type: ADME, organism-based; design: dose 10 mg/kg, route intraperitoneal; conditions: read-out: Drug uptake

For `O=C(O)COc1c(C(=O)O)sc(-c2cccc(NC3CCN(S(=O)(=O)Cc4ccccc4)CC3)c2)c1Br`, the concentration at 7 h [1] was 170 nM, the half-life [2] was greater than 1 h and the IC50 [3] was 40 µM. The Cmax [4] was 15200 nM, the IC50 [5] was greater than 500 µM and the IC50 [6] was greater than 500 µM. The IC50 [7] was greater than 500 µM, the Ki [8] was greater than 500 µM and the Activity [9] was 70%. For the same molecule, the half-life [10] was 10 h, the IC50 [11] was greater than 500 µM and the half-life [12] was greater than 1 h. For the same molecule, the concentration at 7 h [13] was 260 nM, the half-life [14] was 0.767 h and the concentration at 7 h [15] was 370 nM. The solubility [16] was greater than 100 µg/mL, the IC50 [17] was greater than 500 µM and the clearance [18] was 7 mL/min/kg. It also gave an IC50 [19] greater than 500 µM, a Papp [20] of less than 1 ×10⁻⁶ cm/s and a Ki [21] of 77 µM. The concentration at 1 h [22] was 3500 nM and the concentration at 1 h [23] was 6900 nM.
